Measurements reported in patent publication US20240139280A1, “USE OF HIF-1-ALPHA INHIBITORS IN CANCER IMMUNOTHERAPY” (ONCOC4, INC., priority 2021, published 2024).

What was measured:
[1] = system: PD-L1 expression in E0771 cells; format: cell-based, murine
[2] = system: core HRE motif EGFP reporter in 4T1-HRE-EGFP cells; format: cell-based, murine
intestinal tissues [3] = details: in vivo
Experimental: (§1) Experimental design for GI-irAE induction by Ipilimumab, with or without additional therapies. 10-day old CTLA4h/h mice received 0.1 mg of Ipilimumab on days 10, 13, 16, and 19 after birth to induce the GI-irAE phenotype, measured by FITC-dextran assay on day 32. On day 33, the mice were sacrificed for histological and immunofluorescent analysis of intestinal tissues, and flow cytometry, etc. […] Aggregate data from 4 experiments are presented. […] Starting on day 10 after birth, the mice began receiving treatment with vehicle (n=33), echinomycin (n=27), Ipilimumab (n=33), Ipilimumab+echinomycin (n=26), Ipilimumab+RMP1-14 (n=27), Ipilimumab+echinomycin+RMP1-14 (n=28), or Ipilimumab+echinomycin+XMG1.2 (n=15). Echinomycin (10 μg/kg), Ipilimumab (0.1 mg/mouse/injection), RMP1-14 (0.2 mg/mouse/injection), and XMG1.2 (0.2 mg/mouse/injection). Vehicle or echinomycin (10 μg/kg) were given once every three days for 8 doses, and mAbs (0.1 mg/mo. for Ipilimumab; 0.2 mg/mo. for RMP1-14 and XMG1.2) once every three days for 4 doses. Data collection was performed as described in (FIG. 8A). […] Serum FITC-dextran intensity shown as mean±SEM for individual mice pooled from 3 independent experiments. […] Statistics were determined by unpaired t tests (two-tailed) for group means. […] Representative H&E images from intestines of Ipilimumab-treated mice additionally treated with echinomycin (panel i), RMP1-14 (panels ii-iv), echinomycin+RMP1-14 (panels v-vi), or echinomycin+XMG1.2 (panels vii-viii). […] Representative immunofluorescence images showing relative expression of PD-L1 in jejunum of mice from different treatment groups.
(§2) Therefore, we used intestinal permeability to orally administrated FITC-dextran and histology as the readout for irAE (FIG. 8A).

intestinal tissues [4] = test: Ipilimumab-induced GI-irAE in human CTLA4 knockin mice (FITC-dextran, histology, PD-L1); details: Ipilimumab 0.1 mg/mouse/injection; echinomycin 10 μg/kg added to Ipilimumab
Experimental: as §1, §2

Row | Compound | PD-L1 expression [1] | EGFP reporter fluorescence activity [2] | intestinal inflammation / pathology (histological analysis) (intestinal tissues [3]) | PD-L1 expression in the intestines (intestinal tissues [4])
1 | [Cl-].[Cl-].[Co+2] [CoCl2] | further upregulated PD-L1 | marked increase in EGFP reporter fluorescence activity | – | –
2 | Ipilimumab: Recombinant anti-CTLA-4 antibody Ipilimumab provided by Lakepharma Inc. | – | – | induced intestinal inflammation | elevated PD-L1 expression
